The source of these data is patent US10143681B2, “Factor XIa inhibitors” (MERCK SHARP & DOHME CORP., priority 2016, dated 2018).

In general, IC50 refers to the concentration that gives 50% inhibition.

The target of one test is Human plasma kallikrein (Homo sapiens (Human), UniProt P03952). Nature of the test: Kallikrein Assay. In kind it is biochemical. To be noted: purified Human plasma kallikrein 0.5 nM, substrate Acetyl-K-P-R-AFC; read-out: P. KLK IC50. On the procedure:
The effectiveness of a compound of the present invention as an inhibitor of Kallikrein can be determined using a relevant purified serine protease, and an appropriate synthetic substrate. The rate of hydrolysis of the chromogenic or fluorogenic substrate by the relevant serine protease was measured both in the absence and presence of compounds of the present invention. Assays were conducted at room temperature or at 37° C. […] A decrease in the rate of fluorescence change in the presence of inhibitor is indicative of enzyme inhibition. Such methods are known to one skilled in the art. The results of this assay are expressed as the half-maximal inhibitory concentrations (IC50), or the inhibitory constant, Ki.
Kallikrein determinations were made in 50 mM HEPES buffer at pH 7.4 containing 150 mM NaCl, 5 mM CaCl2, and 0.1% PEG 8000 (polyethylene glycol; Fisher Scientific). Determinations were made using purified Human plasma kallikrein at a final concentration of 0.5 nM (Enzyme Research Laboratories) and the synthetic substrate, Acetyl-K-P-R-AFC (Sigma # C6608) at a concentration of […].
Times required to achieve equilibration between enzyme and inhibitor were determined in control experiments. The reactions were performed under linear progress curve conditions and fluorescence increase measured at 405 Ex/510 Em nm. […] IC50 was determined by inflection point from a four parameter logistic curve fit. Ki was calculated using the Cheng Prusoff equation, Ki=IC50/(1+([S]/Km)).

Test [1] concerns Human plasma (intrinsic coagulation cascade). The experiment in a line: Activated Partial Thromboplastin Time (aPTT) Assay. The note with it: concentration that causes a 50% (1.5×) increase of clot time over vehicle. On the procedure: Activated partial thromboplastin time (aPTT) is a clotting test that measures the intrinsic coagulation cascade. The test is performed in sodium citrated plasma. Human plasma is made by collecting blood from healthy donors of both genders into Na citrate tubes (Sarstedt coagulation 9NC/10 ml). Blood is centrifuged at 1500×g and the plasma is collected. aPTT is checked on each individual donor and those within the normal range (28-40 seconds) are pooled, aliquoted, and stored at −80 C. Test samples are prepared by spiking inhibitors or vehicle into plasma. These spiked samples are then run on a coagulation analyzer (STA-R Evolution, Stago Diagnostica). In general, the analyzer performs the following steps: Factor XII is activated by addition of ellagic acid (Pacific Hemostasis), and then time to clot is measured after re-calcification of the sample. Inhibition of FXI will cause aPTT clot time to be prolonged. The data is expressed as percent increase over vehicle control clot time and the concentration that causes a 50% (1.5×) percent increase of clot time are reported.

The next test concerns the target human Factor XIa (Homo sapiens (Human), UniProt P03951). Nature of the test: Factor XIa Assay. In kind it is biochemical. To be noted: for IC50: human Factor XIa 0.04 nM, 30 min pre-incubation at 25° C., substrate GPR-AFC, read-out: FXIa IC50. The method, boiled down: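 IC50 values were obtained from four-parameter log(inhibitor)-response fits of % inhibition, then converted to Ki using Cheng-Prusoff. GPR-AFC hydrolysis was read at 400/505 nm after 60 min at 25 °C.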

Chain of human Factor XIa (P03951 388-625): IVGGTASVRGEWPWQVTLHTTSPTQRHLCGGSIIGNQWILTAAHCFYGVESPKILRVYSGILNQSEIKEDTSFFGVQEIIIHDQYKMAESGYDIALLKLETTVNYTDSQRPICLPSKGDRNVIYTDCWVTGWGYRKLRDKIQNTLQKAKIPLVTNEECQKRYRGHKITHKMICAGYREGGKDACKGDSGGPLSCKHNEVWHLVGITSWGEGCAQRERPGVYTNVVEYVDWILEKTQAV
Chain of human Factor XIa (P03951 19-387 partner): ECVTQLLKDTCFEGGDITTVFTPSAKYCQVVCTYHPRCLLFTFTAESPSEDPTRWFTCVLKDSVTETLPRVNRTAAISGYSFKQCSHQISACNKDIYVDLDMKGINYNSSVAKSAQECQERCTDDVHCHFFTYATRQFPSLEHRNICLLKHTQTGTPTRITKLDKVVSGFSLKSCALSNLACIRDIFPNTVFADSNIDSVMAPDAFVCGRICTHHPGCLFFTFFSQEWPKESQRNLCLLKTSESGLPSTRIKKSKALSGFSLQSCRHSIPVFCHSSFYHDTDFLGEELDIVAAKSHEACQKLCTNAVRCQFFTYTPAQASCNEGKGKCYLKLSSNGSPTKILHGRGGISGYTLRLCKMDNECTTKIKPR
Chain of Human plasma kallikrein (P03952 391-638): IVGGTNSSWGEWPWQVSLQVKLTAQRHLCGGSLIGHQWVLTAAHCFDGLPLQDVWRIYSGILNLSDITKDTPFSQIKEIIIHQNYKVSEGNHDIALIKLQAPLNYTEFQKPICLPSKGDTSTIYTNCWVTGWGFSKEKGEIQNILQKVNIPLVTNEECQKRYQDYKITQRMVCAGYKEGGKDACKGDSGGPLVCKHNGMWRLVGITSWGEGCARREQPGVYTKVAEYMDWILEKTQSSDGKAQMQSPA
Chain of Human plasma kallikrein (P03952 20-390 partner): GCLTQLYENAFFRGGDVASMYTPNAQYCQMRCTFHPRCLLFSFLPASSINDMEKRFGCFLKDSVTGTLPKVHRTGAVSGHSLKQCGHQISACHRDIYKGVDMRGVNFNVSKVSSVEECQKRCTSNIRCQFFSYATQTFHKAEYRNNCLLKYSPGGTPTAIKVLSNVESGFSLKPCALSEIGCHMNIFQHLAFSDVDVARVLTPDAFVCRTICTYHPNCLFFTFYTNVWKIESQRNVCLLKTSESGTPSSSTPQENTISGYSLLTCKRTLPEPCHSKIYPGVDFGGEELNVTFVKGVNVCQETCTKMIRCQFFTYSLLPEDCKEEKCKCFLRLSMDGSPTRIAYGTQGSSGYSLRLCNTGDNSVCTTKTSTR

For the compound `O=C(O)c1ccc(NC(=O)C(CC2CC(F)(F)C2)c2ccc(-c3c(OC(F)F)ccc(Cl)c3F)c[n+]2[O-])cc1` (racemic) [Example 50, (S)- and (R)-2-(1-((4-carboxyphenyl)amino)-3-(3,3-difluorocyclobutyl)-1-oxopropan-2-yl)-5-(3-chloro-6-(difluoromethoxy)-2-fluorophenyl)pyridine 1-oxide], the half-maximal inhibitory concentration (IC50) at Human plasma kallikrein was 47 nM. Further, the “aPTT (1.5x)” value in test [1] came out at 1.33 µM.
For the compound `O=C(O)c1ccc(NC(=O)C(C[C@H]2CC[C@H](O)CC2)c2ccc(-c3c(OC(F)F)ccc(Cl)c3F)c[n+]2[O-])cc1` (single isomer, unassigned) [Example 35], the half-inhibitory concentration (IC50) at Human plasma kallikrein was found to be 12 nM. Further, the “aPTT (1.5x)” value in test [1] stood at 0.39 µM.
For the compound `O=C(O)c1ccc(NC(=O)C(CC2CCC(F)(F)CC2)c2ccc(-c3c(OC(F)F)ccc(Cl)c3F)c[n+]2[O-])cc1` (single isomer, unassigned) [Example 39], the half-inhibitory concentration (IC50) on Human plasma kallikrein is 25 nM. For the same compound, in test [1], the “aPTT (1.5x)” value was 1.30 µM.
`O=C(O)c1ccc(NC(=O)C(CC23CC(C2)C3)c2ccc(-c3c(OC(F)F)ccc(Cl)c3F)c[n+]2[O-])cc1` (single isomer, unassigned) [Example 52]: on Human plasma kallikrein, the IC50 is 14 nM. Besides, in test [1], the “aPTT (1.5x)” value was 1.17 µM.
In the same order, the values of `CC1CC1C[C@@H](C(=O)Nc1ccc(C(=O)O)cc1)c1ccc(-c2c(C(F)(F)F)ccc(Cl)c2F)c[n+]1[O-]` (single isomer, unassigned) [Example 65] are 51 nM and 1.86 µM.
Regarding `COc1cc(C(CC2CC2)C(=O)Nc2ccc(C(=O)O)cc2)[n+]([O-])cc1-c1c(OC(F)F)ccc(Cl)c1F` (single isomer, unassigned) [Example 70, 2-(1-((4-carboxyphenyl)amino)-3-cyclopropyl-1-oxopropan-2-yl)-5-(3-chloro-6-(difluoromethoxy)-2-fluorophenyl)-4-methoxypyridine 1-oxide], the IC50 at Human plasma kallikrein came out at 3.3 nM. The “aPTT (1.5x)” value in test [1] stood at 0.82 µM.
Turning to `COc1cc(C(CC2CC2)C(=O)Nc2ccc(C(=O)O)cc2)[n+]([O-])cc1-c1c(OC(F)F)ccc(Cl)c1F` (single isomer, unassigned) [Example 71, 2-(1-((4-carboxyphenyl)amino)-3-cyclopropyl-1-oxopropan-2-yl)-5-(3-chloro-6-(difluoromethoxy)-2-fluorophenyl)-4-methoxypyridine 1-oxide], at Human plasma kallikrein, the IC50 is 11 nM. Besides, the “aPTT (1.5x)” value in test [1] turned out to be 1.24 µM.
On the same counts, the results for `O=C(O)c1ccc(NC(=O)C(CC2CC2)c2ccc(-c3c(OC(F)F)ccc(Cl)c3F)c[n+]2[O-])cc1F` (single isomer, unassigned) [Example 73] are 88 nM and 2.15 µM.
On the same counts, the results for `O=C(O)c1ccc(NC(=O)C(CC2CC2C(F)(F)F)c2ccc(-c3c(C(F)F)ccc(Cl)c3F)c[n+]2[O-])cc1` (single isomer, unassigned) [Example 87, 2-(1-((4-carboxyphenyl)amino)-1-oxo-3-(2-(trifluoromethyl)cyclopropyl)propan-2-yl)-5-(3-chloro-6-(difluoromethyl)-2-fluorophenyl)pyridine 1-oxide] are 2.7 nM and 0.92 µM.
As to `O=C(O)c1ccc(NC(=O)C(CC2CC2C(F)(F)F)c2ccc(-c3c(C(F)F)ccc(Cl)c3F)c[n+]2[O-])cc1` (single isomer, unassigned) [Example 88, 2-(1-((4-carboxyphenyl)amino)-1-oxo-3-(2-(trifluoromethyl)cyclo-propyl)propan-2-yl)-5-(3-chloro-6-(difluoromethyl)-2-fluorophenyl)pyridine 1-oxide], the half-maximal inhibitory concentration (IC50) on Human plasma kallikrein is 3.6 nM. Further, in test [1], the “aPTT (1.5x)” value turned out to be 1.43 µM.
`O=C(O)c1ccc(NC(=O)C(CC2CC2C(F)F)c2ccc(-c3c(C(F)F)ccc(Cl)c3F)c[n+]2[O-])cc1` (single isomer, unassigned) [Example 90, 2-(1-((4-carboxyphenyl)amino)-3-(2-(difluoromethyl)cyclopropyl)-1-oxopropan-2-yl)-5-(3-chloro-6-(difluoromethyl)-2-fluorophenyl)pyridine 1-oxide]: the IC50 at human Factor XIa amounted to 1.1 nM; on Human plasma kallikrein, 5.3 nM.
As for `CC1C(C)C1CC(C(=O)Nc1ccc(C(=O)O)cc1)c1ccc(-c2c(OC(F)F)ccc(Cl)c2F)c[n+]1[O-]` (single isomer, unassigned) [Example 98, 2-(1-((4-carboxyphenyl)amino)-3-(2,3-dimethylcyclopropyl)-1-oxopropan-2-yl)-5-(3-chloro-6-(difluoromethoxy)-2-fluorophenyl)pyridine 1-oxide], on Human plasma kallikrein, the IC50 was found to be 11.3 nM. The “aPTT (1.5x)” value in test [1] was 0.72 µM.
`CC1C(C)C1CC(C(=O)Nc1ccc(C(=O)O)cc1)c1ccc(-c2c(OC(F)F)ccc(Cl)c2F)c[n+]1[O-]` (single isomer, unassigned) [Example 99, 2-(1-((4-carboxyphenyl)amino)-3-(2,3-dimethylcyclopropyl)-1-oxopropan-2-yl)-5-(3-chloro-6-(difluoromethoxy)-2-fluorophenyl)pyridine 1-oxide]: the IC50 at Human plasma kallikrein was 92 nM. The “aPTT (1.5x)” value in test [1] came to 2.78 µM.
As for `O=C(O)c1ccc(NC(=O)C(CC2CC(F)C2)c2ccc(-c3c(OC(F)F)ccc(Cl)c3F)c[n+]2[O-])cc1` (single isomer, unassigned) [Example 102, 2-(1-((4-carboxyphenyl)amino)-3-(3-fluorocyclobutyl)-1-oxopropan-2-yl)-5-(3-chloro-6-(difluoromethoxy)-2-fluorophenyl)pyridine 1-oxide], on Human plasma kallikrein, the concentration for half-maximal inhibition (IC50) is 31.8 nM. Further, in test [1], the “aPTT (1.5x)” value worked out at 1 µM.
Turning to `COC(=O)c1ccc(NC(=O)C(CC2CC2)c2ccc(-c3c(C(F)F)ccc(Cl)c3F)c[n+]2[O-])cc1` (single isomer, unassigned) [Example 114, 5-(3-chloro-6-(difluoromethyl)-2-fluorophenyl)-2-(3-cyclopropyl-1-((4-(methoxycarbonyl)phenyl)amino)-1-oxopropan-2-yl)pyridine 1-oxide], at human Factor XIa (@ 1000 nM compound), the “FXIa % Inh. @ 1000 nM” value stood at 45%. Moreover, the IC50 on human Factor XIa turned out to be 1000 nM; at Human plasma kallikrein, 201 nM.
On to `O=C(O)c1ccc(NC(=O)C(CC2CC2)c2ccc(-c3c(C(F)F)ccc(Cl)c3F)c[n+]2[O-])cc1F` (single isomer, unassigned) [Example 118, 2-(1-((4-carboxy-3-fluorophenyl)amino)-3-cyclopropyl-1-oxopropan-2-yl)-5-(3-chloro-6-(difluoromethyl)-2-fluorophenyl)pyridine 1-oxide], for which the IC50 on Human plasma kallikrein was determined as 14.6 nM. The “aPTT (1.5x)” value in test [1] is 0.66 µM.
With `O=C(O)c1ccc(NC(=O)C(CC2CCC2)c2ccc(-c3c(C(F)F)ccc(Cl)c3F)c[n+]2[O-])cc1F` (single isomer, unassigned) [Example 120, 2-(1-((4-carboxy-3-fluorophenyl)amino)-3-cyclobutyl-1-oxopropan-2-yl)-5-(3-chloro-6-(difluoromethyl)-2-fluorophenyl)pyridine 1-oxide], the concentration for half-maximal inhibition (IC50) at Human plasma kallikrein stood at 2.1 nM. Also, the “aPTT (1.5x)” value in test [1] turned out to be 0.75 µM.
On to `Cc1cc(NC(=O)C(CC2CC2)c2ccc(-c3c(C(F)F)ccc(Cl)c3F)c[n+]2[O-])ccc1C(=O)O` (single isomer, unassigned) [Example 122, 2-(1-((4-carboxy-3-methylphenyl)amino)-3-cyclopropyl-1-oxopropan-2-yl)-5-(3-chloro-6-(difluoromethyl)-2-fluorophenyl)pyridine 1-oxide], for which the values for the half-maximal inhibitory concentration (IC50) at human Factor XIa and on Human plasma kallikrein were 9.9 nM and 69.8 nM, respectively.
As to `O=C(O)c1ccc(NC(=O)C(CC23CC(C2)C3)c2ccc(-c3c(C(F)F)ccc(Cl)c3F)c[n+]2[O-])cc1F` (single isomer, unassigned) [Example 124, 2-(3-(bicyclo[1.1.1]pentan-1-yl)-1-((4-carboxy-3-fluorophenyl)amino)-1-oxopropan-2-yl)-5-(3-chloro-6-(difluoromethyl)-2-fluorophenyl)pyridine 1-oxide], the IC50 at Human plasma kallikrein came to 4.7 nM. Further, in test [1], the “aPTT (1.5x)” value was found to be 1.76 µM.
